The text below walks through data of BindingDB's records for patent WO2022098806 (MERCK SHARP & DOHME LLC, 2022).

For orientation: IC50 means the concentration that inhibits the measured activity by half. Read a high IC50 as weaker potency in that assay.

This experiment deals with Mitogen-activated protein kinase kinase kinase kinase 1 (Homo sapiens, UniProt Q92918). The experiment can be described thus: HPK1-SLP76 TR-FRET ASSAY.
Sequence of Mitogen-activated protein kinase kinase kinase kinase 1 (Q92918 whole entry): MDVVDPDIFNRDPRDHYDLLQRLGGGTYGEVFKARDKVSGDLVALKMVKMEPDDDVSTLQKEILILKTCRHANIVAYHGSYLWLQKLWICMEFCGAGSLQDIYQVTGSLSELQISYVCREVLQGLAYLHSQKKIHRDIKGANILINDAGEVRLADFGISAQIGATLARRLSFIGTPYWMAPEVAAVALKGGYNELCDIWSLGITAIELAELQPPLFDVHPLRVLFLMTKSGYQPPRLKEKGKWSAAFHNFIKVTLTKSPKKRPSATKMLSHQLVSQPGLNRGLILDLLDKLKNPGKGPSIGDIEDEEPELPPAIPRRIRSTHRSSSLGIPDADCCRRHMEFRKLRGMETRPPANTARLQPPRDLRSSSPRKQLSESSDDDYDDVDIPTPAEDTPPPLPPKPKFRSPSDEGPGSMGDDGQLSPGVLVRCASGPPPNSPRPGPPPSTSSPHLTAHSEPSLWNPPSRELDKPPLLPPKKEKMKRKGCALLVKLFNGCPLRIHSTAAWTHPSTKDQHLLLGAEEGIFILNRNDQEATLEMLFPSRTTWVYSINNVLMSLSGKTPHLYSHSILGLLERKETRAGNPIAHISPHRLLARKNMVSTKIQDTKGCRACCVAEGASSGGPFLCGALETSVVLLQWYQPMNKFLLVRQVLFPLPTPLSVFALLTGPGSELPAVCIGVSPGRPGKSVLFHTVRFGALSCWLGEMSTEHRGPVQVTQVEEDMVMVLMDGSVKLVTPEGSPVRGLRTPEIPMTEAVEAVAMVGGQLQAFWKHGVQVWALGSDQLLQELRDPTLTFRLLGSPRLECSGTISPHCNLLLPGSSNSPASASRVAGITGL
`COc1cc2c(cc1Nc1ncc3ccc(-c4cncc5cccnc45)cc3n1)CN(C)CC2` [WO2022098806, Compound 1-24]: the IC50 stood at 10 nM.

Turning to `COc1cc2c(cc1Nc1ncc3ccc(-c4cnn(C(F)F)c4)cc3n1)CN(C)CC2` [WO2022098806, Compound 1-26], it took 11 nM to reach half-maximal inhibition (IC50).

`COc1cc2c(cc1Nc1ncc3ccc(-c4cncc(NS(C)(=O)=O)c4)cc3n1)CNCC2` [WO2022098806, Compound 1-36] registered an IC50 of 183 nM.

On to `COc1cc2c(cc1Nc1ncc3ccc(-c4cnccc4Cl)cc3n1)CNCC2` [WO2022098806, Compound 1-37], for which the IC50 was 28 nM. Compared with the last compound, the IC50 is about 6.5-fold lower.

Regarding `COc1cc2c(cc1Nc1ncc3ccc(-c4cncc(N5CCOCC5)c4)cc3n1)CNCC2` [WO2022098806, Compound 1-42], the IC50 stood at 39 nM.

In turn, `CCCC(=O)Nc1cncc(-c2ccc3cnc(Nc4cc5c(cc4OC)CCNC5)nc3c2)c1` [WO2022098806, Compound 1-52] returned a half-inhibitory concentration (IC50) of 11 nM.

As for `COc1cc2c(cc1Nc1ncc3ccc(-c4cccc(CO)c4)cc3n1)CNCC2` [WO2022098806, Compound 1-60], it took 20 nM to reach half-maximal inhibition (IC50). Compared with the last compound, the IC50 is about 1.8-fold higher.

The compound `COc1cc2c(cc1Nc1ncc3ccc(-c4cccc(S(=O)(=O)N5CCOCC5)c4)cc3n1)CNCC2` [WO2022098806, Compound 1-77] yielded an IC50 of 25 nM.

The compound `COc1cc2c(cc1Nc1ncc3ccc(-c4cccc(S(=O)(=O)N5CCCCC5)c4)cc3n1)CNCC2` [WO2022098806, Compound 1-82] showed an IC50 of 15 nM.

`COc1cc2c(cc1Nc1ncc3ccc(-c4cccc(NCC(C)=O)c4)cc3n1)CN(C)CC2` [WO2022098806, Compound 1-98] showed an IC50 of 203 nM.

With `COc1cc2c(cc1Nc1ncc3ccc(-c4cccc(C5CCC(=O)N5)c4)cc3n1)CN(C)CC2` (centres undefined) [WO2022098806, Compound 1-99], inhibition was half-maximal at 120 nM (IC50).

With `COc1cc2c(cc1Nc1ncc3ccc(-c4cnn(CC(C)O)c4)cc3n1)CN(C)CC2` (centres undefined) [WO2022098806, Compound 1-102], the IC50 amounted to 22 nM.

The compound `Cc1c(-c2cc3nc(Nc4ccc5c(c4)CN(C)CC5)ncc3cc2F)cnc2c1NCCO2` [WO2022098806, Compound 1-114] displayed an IC50 of 0.09 nM.

For `Cc1c(-c2cc3nc(Nc4ccc(CS(C)(=O)=O)cc4)ncc3cc2F)cnc2c1NCCO2` [WO2022098806, Compound 1-115], the IC50 was 0.05 nM.

The compound `CNC(=O)[C@@H](C)c1ccc(Nc2ncc3cc(F)c(-c4cnc5c(c4C)NCCO5)cc3n2)cc1` [WO2022098806, Compound 1-116] returned an IC50 of 0.22 nM.

The compound `CNC(=O)[C@H](C)c1ccc(Nc2ncc3cc(F)c(-c4cnc5c(c4C)NCCO5)cc3n2)cc1` [WO2022098806, Compound 1-117] displayed an IC50 of 0.07 nM.

As for `CNC(=O)[C@@H]1CCc2cc(Nc3ncc4cc(F)c(-c5cnc6c(c5C)NCCO6)cc4n3)ccc21` [WO2022098806, Compound 1-118], 0.04 nM corresponded to half-maximal inhibition (IC50).

`CNC(=O)[C@H]1CCc2cc(Nc3ncc4cc(F)c(-c5cnc6c(c5C)NCCO6)cc4n3)ccc21` [WO2022098806, Compound 1-119]: the IC50 turned out to be 1.17 nM.

In turn, `CNC(=O)C1(c2ccc(Nc3ncc4cc(F)c(-c5cnc6c(c5C)NCCO6)cc4n3)cc2)CCC1` [WO2022098806, Compound 1-121] had an IC50 of 0.26 nM. Against the preceding compound, the IC50 is about 4.5-fold lower.

`Cc1c(-c2cc3nc(Nc4ccc([C@H](C)S(C)(=O)=O)cc4)ncc3cc2F)cnc2c1NCCO2` [WO2022098806, Compound 1-124] displayed an IC50 of 0.04 nM.

`Cc1c(-c2cc3nc(Nc4ccc([C@@H]5CCN(C)C5=O)cc4)ncc3cc2F)cnc2c1NCCO2` [WO2022098806, Compound 1-125] showed an IC50 of 0.06 nM.

Compound `Cc1c(-c2cc3nc(Nc4ccc([C@@H](C)S(C)(=O)=O)cc4)ncc3cc2F)cnc2c1NCCO2` [WO2022098806, Compound 1-126] gave an IC50 of 0.68 nM.

Compound `Cc1c(-c2cc3nc(Nc4ccc([C@H]5CCN(C)C5=O)cc4)ncc3cc2F)cnc2c1NCCO2` [WO2022098806, Compound 1-127] registered a concentration for half-maximal inhibition (IC50) of 0.95 nM.

Regarding `Cc1c(-c2cc3nc(Nc4ccc(CS(=O)(=O)C(C)C)cc4)ncc3cc2F)cnc2c1NCCO2` [WO2022098806, Compound 1-128], the IC50 turned out to be 0.08 nM.

With `Cc1c(-c2ccc3cnc(Nc4ccc(CS(=O)(=O)C(C)C)cc4)nc3c2)cnc2c1NCCO2` [WO2022098806, Compound 1-129], the IC50 was 0.09 nM.

As for `CNC(=O)Cc1ccc(Nc2ncc3cc(F)c(-c4cnc5c(c4C)NCCO5)cc3n2)cc1` [WO2022098806, Compound 1-130], the IC50 is 0.07 nM. The IC50 values of the last two compounds are within 1.5-fold of each other.

As for `Cc1c(-c2cc3nc(Nc4ccc(CC(N)=O)cc4)ncc3cc2F)cnc2c1NCCO2` [WO2022098806, Compound 1-131], the 50% inhibitory concentration (IC50) came to 0.16 nM.

On to `Cc1c(-c2cc3nc(Nc4ccc(CC(=O)N(C)C)cc4)ncc3cc2F)cnc2c1NCCO2` [WO2022098806, Compound 1-132], for which the midpoint of inhibition, the IC50, lay at 0.13 nM.

Regarding `Cc1c(-c2cc3nc(Nc4ccc(CC(=O)N5CCOCC5)cc4)ncc3cc2F)cnc2c1NCCO2` [WO2022098806, Compound 1-133], 0.08 nM corresponded to half-maximal inhibition (IC50).

Compound `CCS(=O)(=O)Cc1ccc(Nc2ncc3ccc(-c4cnc5c(c4C)NCCO5)cc3n2)cc1` [WO2022098806, Compound 1-134] had an IC50 of 0.04 nM.

As to `COc1cc2c(cc1Nc1ncc3c(N)c(F)c(-c4cnc5c(c4C)NCCO5)cc3n1)CN(C)CC2` [WO2022098806, Compound 2-2], 0.09 nM corresponded to half-maximal inhibition (IC50).

`CC(=O)N1CCCc2cc(Nc3ncc4c(N)c(F)c(-c5cnc6c(c5C)NCCO6)cc4n3)ccc21` [WO2022098806, Compound 2-7] returned an IC50 of 0.11 nM. The IC50 values of the last two compounds are within 1.5-fold of each other.

`CC(=O)N[C@@H]1CCc2cc(Nc3ncc4c(N)c(F)c(-c5cnc6c(c5C)NCCO6)cc4n3)ccc21` [WO2022098806, Compound 2-10] displayed an IC50 of 0.12 nM.

Compound `CC(=O)N[C@H]1CCc2cc(Nc3ncc4c(N)c(F)c(-c5cnc6c(c5C)NCCO6)cc4n3)ccc21` [WO2022098806, Compound 2-11] came in with an IC50 of 0.08 nM.

Compound `CC(=O)N1CCc2ccc(Nc3ncc4c(N)c(F)c(-c5cnc6c(c5C)NCCO6)cc4n3)cc2C1` [WO2022098806, Compound 2-12] displayed an IC50 of 865 nM.

`Cc1c(-c2cc3nc(Nc4cccc(S(C)(=O)=O)c4)ncc3c(N)c2F)cnc2c1NCCO2` [WO2022098806, Compound 2-14] came in with an IC50 of 0.08 nM.

`CC(=O)Nc1ccc(Nc2ncc3c(N)c(F)c(-c4cnc5c(c4C)NCCO5)cc3n2)cc1` [WO2022098806, Compound 2-15] came in with an IC50 of 0.07 nM.

With `Cc1c(-c2cc3nc(Nc4ccc(NS(C)(=O)=O)cc4)ncc3c(N)c2F)cnc2c1NCCO2` [WO2022098806, Compound 2-16], the midpoint of inhibition, the IC50, lay at 0.09 nM.

On to `Cc1c(-c2cc3nc(Nc4ccc(S(C)(=O)=O)cc4)ncc3c(N)c2F)cnc2c1NCCO2` [WO2022098806, Compound 2-17], for which the IC50 worked out at 0.09 nM.

`CNC(=O)c1ccc(Nc2ncc3c(N)c(F)c(-c4cnc5c(c4C)NCCO5)cc3n2)cc1` [WO2022098806, Compound 2-23] gave an IC50 of 0.05 nM. Compared with the last compound, the IC50 is about 1.8-fold lower.

Take `Cc1c(-c2cc3nc(Nc4ccccc4)ncc3c(N)c2F)cnc2c1NCCO2` [WO2022098806, Compound 2-25]: the IC50 was found to be 0.27 nM.

`Cc1c(-c2cc3nc(Nc4ccccc4C4CC4)ncc3c(N)c2F)cnc2c1NCCO2` [WO2022098806, Compound 2-26] yielded an IC50 of 11 nM.

Compound `COc1ncccc1Nc1ncc2c(N)c(F)c(-c3cnc4c(c3C)NCCO4)cc2n1` [WO2022098806, Compound 2-27] displayed an IC50 of 0.12 nM.

`CC(=O)N1CCC[C@@H]1c1ccc(Nc2ncc3c(N)c(F)c(-c4cnc5c(c4C)NCCO5)cc3n2)cc1` [WO2022098806, Compound 2-28] had an IC50 of 0.15 nM.

Regarding `CC(=O)N1CCC[C@H]1c1ccc(Nc2ncc3c(N)c(F)c(-c4cnc5c(c4C)NCCO5)cc3n2)cc1` [WO2022098806, Compound 2-29], 0.27 nM corresponded to half-maximal inhibition (IC50).

`CC(=O)NCc1ccc(Nc2ncc3c(N)c(F)c(-c4cnc5c(c4C)NCCO5)cc3n2)cc1` [WO2022098806, Compound 2-30]: the IC50 stood at 0.08 nM.

Take `Cc1c(-c2cc3nc(Nc4cccc(S(=O)(=O)NC(C)(C)C)c4)ncc3c(N)c2F)cnc2c1NCCO2` [WO2022098806, Compound 2-33]: the IC50 came out at 0.19 nM.

`CNS(=O)(=O)c1cccc(Nc2ncc3c(N)c(F)c(-c4cnc5c(c4C)NCCO5)cc3n2)c1` [WO2022098806, Compound 2-34] displayed an IC50 of 0.12 nM.

`COc1cc2c(cc1Nc1ncc3c(N)c(F)c(-c4cnc5c(c4C)NCCO5)cc3n1)[C@@H](C)N(C)CC2` [WO2022098806, Compound 2-35] gave an IC50 of 0.15 nM.

`COc1cc2c(cc1Nc1ncc3c(N)c(F)c(-c4cnc5c(c4C)NCCO5)cc3n1)[C@H](C)N(C)CC2` [WO2022098806, Compound 2-36] returned an IC50 of 0.1 nM. The IC50 values of the last two compounds are within 1.5-fold of each other.

On to `Cc1c(-c2cc3nc(Nc4ccc5c(c4)C(C)(C)OC5=O)ncc3c(N)c2F)cnc2c1NCCO2` [WO2022098806, Compound 2-41], for which half-maximal inhibition (IC50) was put at 0.08 nM.

In the case of `Cc1c(-c2cc3nc(Nc4ccc5c(c4)CN(CC(C)(C)O)C5=O)ncc3c(N)c2F)cnc2c1NCCO2` [WO2022098806, Compound 2-42], the IC50 was 0.15 nM.

In turn, `Cc1c(-c2cc3nc(Nc4ccc5c(c4)CCS5(=O)=O)ncc3c(N)c2F)cnc2c1NCCO2` [WO2022098806, Compound 2-43] returned an IC50 of 0.08 nM.

As for `Cc1ccncc1-c1cc2nc(Nc3ccc(CS(C)(=O)=O)cc3)ncc2c(N)c1F` [WO2022098806, Compound 2-44], the IC50 worked out at 0.19 nM.

For `COc1cc2c(cc1Nc1ncc3c(N)c(F)c(-c4cnc5ncsc5c4)cc3n1)CN(C)CC2` [WO2022098806, Compound 2-47], the IC50 was 25 nM.

Compound `COc1cc2c(cc1Nc1ncc3c(N)c(F)c(-c4cnc5c(c4C)NCCO5)cc3n1)C(C)N(C)C(C)C2` (centres undefined) [WO2022098806, Compound 2-48] gave an IC50 of 0.7 nM.

The compound `COc1cc2c(cc1Nc1ncc3c(N)c(F)c(-c4cc5oc(=O)[nH]c5cc4C)cc3n1)CN(C)CC2` [WO2022098806, Compound 2-49] displayed an IC50 of 10 nM.

In turn, `COc1cc([C@@H]2CCN(C)C2=O)ccc1Nc1ncc2c(N)c(F)c(-c3cnc4c(c3C)NCCO4)cc2n1` [WO2022098806, Compound 2-54] yielded an IC50 of 0.08 nM.

The compound `COc1cc([C@H](C)S(C)(=O)=O)ccc1Nc1ncc2c(N)c(F)c(-c3cnc4c(c3C)NCCO4)cc2n1` [WO2022098806, Compound 2-55] showed an IC50 of 1.62 nM.
